Experimental data reported in patent US6093563A, “Chondroitin lyase enzymes” (IBEX Technologies R and D, Inc., priority 1994, dated 2000).

Legend:
[1] = target: Flavobacterium heparinum chondroitinase AC (77,000 Dalton, purified, Sequence ID No. 2) (Pedobacter heparinus, UniProt Q59288); details: 0.1 mM reagent; 20 mM Tris buffer, pH 8.0; 0.5 mg/ml chondroitin sulfate A as substrate; none = 100
Description: (§1) Chondroitinase activity was determined by a modification of the spectrophotometric assay described by Yang, et al., J. Biol. Chem., 160(30):1849-1857, 1985. Chondroitinases degrade their respective substrates by an eliminative reaction resulting in the formation of 4,5-unsaturated sulfated disaccharides which absorb ultraviolet light at 232 nm. Reaction buffers contained 50 mM Tris, pH 8.0 and 0.5 mg/ml substrate; dermatan sulfate for chondroitinase B activity, chondroitin sulfate A for chondroitinase AC activity. A continuous spectrophotometric assay is carried out by transferring a 10 to 50 μl sample to a quartz cuvette and adding the reaction buffer to make a final volume of one ml. The cuvette is placed in a Beckman DU 640 spectrophotometer, controlled to maintain a constant temperature of 30° C., and the increase in absorbance at 232 nm monitored for three to five minutes. Activities are calculated using the molar extinction coefficient for chondroitin sulfate, 5.1×103 M^-1, and are expressed in international units, IU, where one IU is the amount of enzyme required to catalyze the formation of one μmole unsaturated product per minute.

[2] = target: Flavobacterium heparinum chondroitinase B (55,000 Dalton, purified, Sequence ID No. 4) (Pedobacter heparinus, UniProt Q46079); details: 0.1 mM reagent; 20 mM Tris buffer, pH 8.0; 0.5 mg/ml dermatan sulfate as substrate; none = 100
Description: as §1

Sequence of Flavobacterium heparinum chondroitinase B (55,000 Dalton, purified, Sequence ID No. 4) (Q46079 26-506): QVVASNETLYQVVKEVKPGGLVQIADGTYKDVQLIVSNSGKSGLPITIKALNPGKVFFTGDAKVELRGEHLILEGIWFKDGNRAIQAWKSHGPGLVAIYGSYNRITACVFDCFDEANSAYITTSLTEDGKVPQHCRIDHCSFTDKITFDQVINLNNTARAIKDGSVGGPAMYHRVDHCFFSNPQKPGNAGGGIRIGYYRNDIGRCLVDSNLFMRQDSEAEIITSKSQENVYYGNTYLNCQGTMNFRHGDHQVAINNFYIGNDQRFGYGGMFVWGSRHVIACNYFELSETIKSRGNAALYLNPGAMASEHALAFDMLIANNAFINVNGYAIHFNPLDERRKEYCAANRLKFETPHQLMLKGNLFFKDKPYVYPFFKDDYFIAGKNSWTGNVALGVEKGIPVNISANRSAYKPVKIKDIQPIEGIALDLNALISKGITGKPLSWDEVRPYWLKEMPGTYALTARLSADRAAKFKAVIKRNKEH
Sequence of Flavobacterium heparinum chondroitinase AC (77,000 Dalton, purified, Sequence ID No. 2) (Q59288 23-700): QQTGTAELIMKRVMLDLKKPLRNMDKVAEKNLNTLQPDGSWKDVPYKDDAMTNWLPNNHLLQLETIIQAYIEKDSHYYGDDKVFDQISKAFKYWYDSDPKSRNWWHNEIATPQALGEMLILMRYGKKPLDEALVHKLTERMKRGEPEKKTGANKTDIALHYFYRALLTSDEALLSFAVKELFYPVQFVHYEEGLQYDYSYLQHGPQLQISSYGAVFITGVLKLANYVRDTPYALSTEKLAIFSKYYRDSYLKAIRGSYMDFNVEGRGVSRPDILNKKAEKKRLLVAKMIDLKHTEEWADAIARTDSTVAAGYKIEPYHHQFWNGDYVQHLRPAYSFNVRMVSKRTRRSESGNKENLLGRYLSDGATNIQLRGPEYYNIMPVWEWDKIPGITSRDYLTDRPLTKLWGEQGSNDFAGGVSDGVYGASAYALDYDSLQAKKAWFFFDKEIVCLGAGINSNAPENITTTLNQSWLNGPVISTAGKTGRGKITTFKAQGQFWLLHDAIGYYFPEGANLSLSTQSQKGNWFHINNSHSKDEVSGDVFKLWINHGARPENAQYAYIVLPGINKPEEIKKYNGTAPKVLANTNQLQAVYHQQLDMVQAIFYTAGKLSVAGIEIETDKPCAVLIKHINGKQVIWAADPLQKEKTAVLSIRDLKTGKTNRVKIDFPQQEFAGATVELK

O=C(O)CN(CCN(CC(=O)O)CC(=O)O)CC(=O)O [EDTA]
chondroitinase AC relative activity (%) [1]: 97% | chondroitinase B relative activity (%) [2]: 1%
